Laboratory results published in patent US9926326B2, “Substituted thioxanthenone autophagy inhibitors” (THE CLEVELAND CLINIC FOUNDATION, priority 2014, dated 2018).

How the values were obtained:
[1] = tested on: LC3B, p62, cathepsin D; experiment: Immunoblotting of autophagy markers and autophagic flux with bafilomycin A1; format: cell-based, human
Method: Immunoblotting. Renal cancer cells were incubated with ROC-325 for 24 h. Cells were harvested and were then lysed as previously described. Nawrocki S T, Carew J S, Maclean K H, Courage J F, Huang P, Houghton J A, Cleveland J L, Giles F J, McConkey D J. Myc regulates aggresome formation, the induction of Noxa, and apoptosis in response to the combination of bortezomib and SAHA. Blood 2008; 112:2917-26. Approximately 50 μg of total cellular protein from each sample were subjected to SDS-PAGE, proteins were transferred to nitrocellulose membranes, and the membranes were blocked with 5% nonfat milk in a Tris-buffered saline solution containing 0.1% Tween-20 for 1 h. The blots were then probed overnight at 4° C. with primary antibodies, washed, and probed with species-specific secondary antibodies coupled to horseradish peroxidase. Immunoreactive material was detected by enhanced chemiluminescence (West Pico, Pierce, Inc., […]. Ill.).

[2] = tested on: LC3B; experiment: LC3B immunocytochemistry; format: cell-based, human; settings: 5 μM, 24 hours, A498 and 786-0
Method: Immunocytochemistry. Cells were plated on chamber slides and allowed to attach overnight. Cells were then treated for 24 h with ROC-325. Following drug treatment, cells were fixed with 4% paraformaldehyde, permeabilized using 0.2% triton-X-100, and incubated overnight with anti-LC3B antibody. Alexa Fluor 594 conjugated fluorescent secondary antibody was used to visualize protein localization. Dapi was utilized to stain the nucleus. Images were captured using an Olympus fluorescent microscope (Center Valley, Pa.) with a DP71 camera and a 60× objective. Image-Pro Plus software Version 6.2.1 (MediaCybernetics, Bethesda, Md.) was used for image acquisition.

[3] = tested on: A498 and 786-O cells; experiment: Giemsa staining, vacuolization; format: cell-based, human; settings: 5 μM, 24 h
Method: Giemsa staining. Cells were plated in chamber slides as previously described and treated with ROC-325 for 24 h. Carew et al., J Biol Chem 2011; 286:6602-13. Following drug treatment, cells were washed with PBS and fixed in methanol for 5 minutes. Cells were then incubated for 1 h in Giemsa stain diluted 1:20 with deionized water. Cells were rinsed with water and imaged using an Olympus fluorescent microscope. Image-Pro Plus software Version 6.2.1 was used for image acquisition.

[4] = tested on: cathepsin D (CTSD); experiment: Cathepsin D expression, microarray and qRT-PCR; format: cell-based, human; settings: A498 and 786-0, 5 μM, 24 hours; confirmed by qRT-PCR
Method: Expression microarrays. RCC cells were treated with […] for 24 h. Total RNAs were isolated using the RNeasy Plus Mini Kit (Qiagen, Germantown, Md.) and treated with TURBO DNA-Free™ Kit (Applied Biosystems, Foster City, Calif.), 300 ng of total RNA per sample was amplified and hybridized to GeneChip® Human Gene 1.0 ST arrays (Affymetrix, Inc., Santa Clara, Calif.) according to the manufacturer's instructions. Affymetrix CEL files were imported into Partek® Genomics Suite™ 6.4 (Partek Inc., St. Louis. Mo.) using the default Partek normalization parameters and the robust multi-array average (RMA) analysis adjusted for probe sequence and GC content (GC-RMA). Data normalization was performed across all arrays using quantile normalization.
Quantitative real time polymerase chain reaction, cDNA from ROC-325 treated cells were used for relative quantification by RT-PCR analyses. First-strand cDNA synthesis was performed from 1 μg RNA in a 20 μl reaction mixture using the high-capacity eDNA Reverse Transcription Kit (Applied Biosystems, Foster City, Calif.). Cathepsin D (CTSD) and GAPDH transcripts were amplified using commercially available TaqMan® Gene expression assays (Applied Biosystems, Foster City, Calif.). Relative gene expression was calculated with the 2-Ct method using GAPDH as a housekeeping gene. Pfaffl M W., Nucleic Acids Res 2001; 29:e45.

[5] = tested on: normal renal proximal tubule endothelial cells (RPTEC); experiment: MTT cell viability in normal renal cells; format: cell-based, human; settings: 72 hours
Method: (§1) Cells and cell culture. A498, 786-0, Achn and Caki-2 cells were obtained from ATCC (Manassas. Va.). Cells were cultured with medium supplemented with 10% FBS at 37° C. with 5% CO2 as previously described. Swords et al., Blood 2010; 115:3796.800. Human normal renal proximal tubule epithelial cells (RPTEC) were purchased from Clonetics (Walkersville, Md.) and cultured in REGM media (REGM BulletKit, Clonetics). Cell lines were authenticated by the source banks using DNA profiling techniques and were used for this study in accordance with AACR guidelines.
(§2) Quantification of drug-induced cytotoxicity. Cell viability was assessed by MIT assay. Cells were seeded into 96-well microculture plates at […] per well and allowed to attach for 24 h. Cells were then treated with ROC-325 or HCQ for 72 h. Following drug treatment, MTT was added and cell viability was quantified using a BioTek (Winooski, Vt.) microplate reader. Pro-apoptotic effects following in vitro drug exposure were quantified by propidium iodide (PI) staining and fluorescence-activated cell sorting (FACS) analysis of sub-G0/G1 DNA content as previously described and by measurement of active caspase-3 by flow cytometry using a commercial kit (BD Biosciences, San Jose, Calif.). Mahalingam et al., Clin Cancer Res 2010; 16:141-53.

[6] = tested on: COLO-205; experiment: 72 h MTT assay, COLO-205; format: cell-based; settings: Homo sapiens, COLO-205, Colon
Method: as §2

[7] = tested on: 786-0 RCC xenografts; experiment: In vivo evaluation in 786-O RCC xenografts; design: species or system nude mice
Method: In vivo evaluation of ROC-325 and HCQ. 786-O renal cancer cells (5×106) were suspended in a mixture of HBSS and Matrigel and subcutaneously implanted into female nude mice (BALB/c background). Tumor-bearing animals from each cell line xenograft were randomized into treatment groups. Mice were treated with vehicle (water), ROC-325 (25, 40, and 50 mg/kg PO), or HCQ (60 mg/kg IP) QD×5 for 6 weeks. Mice were monitored daily and tumor volumes were measured twice weekly. At study completion, tumors from representative animals were excised from each group, […], and paraffin-embedded for immunohistochemical analysis.
Immunohistochemistry. Paraffin-embedded tumor sections were deparaffinized in xylene, exposed to a graded series of alcohol, and rehydrated in PBS (pH 7.5). Heat-induced epitope retrieval on paraffin-embedded sections and probing with specific antibodies was conducted as previously described. Nawrocki et al., Clin Cancer Res 2013; 19:3577-90. Positive reactions were visualized using 3,3′-diaminobenzidine (Dako, Glostrup, Denmark). Images were captured using an Olympus fluorescent microscope (Center Valley. Pa.) with a DP71 camera and a 20× objective. Image-Pro Plus software Version 6.2.1 (MediaCybernetics, Bethesda, Md.) was used for image acquisition. ImageJ software was used for quantification of LC3B and p62 levels by densitometric analysis of five random fields containing viable tumor cells. Quantification of cleaved caspase-3 was conducted by counting the number of positive cells in five random fields as previously described. Carew et al., Cancer Res 2008; 68:4783-90.

[8] = tested on: MiaPaCa-2; experiment: 72 h MTT assay, MiaPaCa-2; format: cell-based; settings: Homo sapiens, MIA PaCa-2, MiaPaCa-2, Pancreas
Method: as §2

[9] = tested on: RCC cells; experiment: Transmission electron microscopy; format: cell-based, human; settings: 5 μM, 24 h
Method: Transmission electron microscopy. Transmission electron microscopy of cells was performed as previously described. Carew et al., J Cell Mol Med 2010 Oct.; 14(10):2448-59. RCC cells were treated with ROC-325 for 24 h and harvested for imaging. Briefly, sections were cut in an LKB Ultracut microtome (Leica. Deerfield, Ill.), stained with uranyl acetate and lead citrate, and examined in a JEM 1230 transmission electron microscope (JEOL, USA, Inc., Peabody, Mass.). Images were captured using the AMT Imaging System (Advanced Microscopy Techniques Corp, Danvers. Mass.).

[10] = tested on: A549; experiment: 72 h MTT assay, A549; format: cell-based; settings: Homo sapiens, A549, Lung
Method: as §2

[11] = tested on: CFPAC-1; experiment: 72 h MTT assay, CFPAC-1; format: cell-based; settings: Homo sapiens, CFPAC-1, Pancreas
Method: as §2

[12] = tested on: RL; experiment: 72 h MTT assay, RL; format: cell-based; settings: Homo sapiens, NHL
Method: as §2

[13] = tested on: PC-3; experiment: 72 h MTT assay, PC-3; format: cell-based; settings: Homo sapiens, PC-3, Prostate
Method: as §2

[14] = tested on: A498; experiment: 72 h MTT assay, A498; format: cell-based; settings: Homo sapiens, A498, Renal
Method: as §1, §2

[15] = tested on: NCI-H69; experiment: 72 h MTT assay, NCI-H69; format: cell-based; settings: Homo sapiens, NCI-H69, Lung
Method: as §2

[16] = tested on: DLD-1; experiment: 72 h MTT assay, DLD-1; format: cell-based; settings: Homo sapiens, DLD-1, Colon
Method: as §2

[17] = tested on: UACC-62; experiment: 72 h MTT assay, UACC-62; format: cell-based; settings: Homo sapiens, UACC-62, Melanoma
Method: as §2

[18] = tested on: MCF-7; experiment: 72 h MTT assay, MCF-7; format: cell-based; settings: Homo sapiens, MCF7, MCF-7, Breast
Method: as §2

[19] = tested on: RCC cell lines (786-0, A498, Achn, and Caki-2); experiment: MTT cell viability in RCC cell lines; format: cell-based, human; settings: 72 hours
Method: as §1, §2

[20] = tested on: 12 different human cancer cell lines; experiment: Direct comparison of in vitro anticancer effects in 12 cancer cell lines (MTT); format: cell-based; settings: all 12 models tested, 72 h MTT
Method: as §2

[21] = tested on: IGROV-1; experiment: 72 h MTT assay, IGROV-1; format: cell-based; settings: Homo sapiens, IGROV-1, Ovarian
Method: as §2

[22] = tested on: RCC cells; experiment: Apoptosis: active caspase-3 flow cytometry and PI-FACS DNA fragmentation; format: cell-based, human; settings: 48 hours
Method: as §2

[23] = tested on: 786-O and A498 cells; experiment: Acridine orange staining of acidic lysosomes; format: cell-based, human; settings: 24 h
Method: Acridine orange staining. Acidic lysosomes were visualized by acridine orange staining as previously described. Carew et al., J Biol Chem 2011; 286:6602-13. After treatment with ROC-325 for 24 h, cells were stained with 1 μM acridine orange for 15 minutes at 37° C. Cells were washed with PBS and images were captured using an Olympus fluorescent microscope. Acidic lysosomes appear as orange fluorescent cytoplasmic vesicles. Quantification of 5 random fields of acridine orange intensity and image acquisition were performed using Image-Pro Plus software Version 6.2.1.

[24] = Carew et al., J Biol Chem 2011; cited from earlier work

| SMILES | IC50 [6] [µM] | IC50 [8] [µM] | IC50 [10] [µM] | IC50 [11] [µM] | IC50 [12] [µM] | IC50 [13] [µM] | IC50 [14] [µM] | IC50 [15] [µM] | IC50 [16] [µM] | IC50 [17] [µM] | IC50 [18] [µM] | IC50 [21] [µM] | also measured |
| --- | --- | --- | --- | --- | --- | --- | --- | --- | --- | --- | --- | --- | --- |
| Cc1ccc(NCCN(C)CCNc2ccnc3cc(Cl)ccc23)c2c(=O)c3ccccc3sc12 [ROC-325] | 5.4 | 5.8 | 11 | 4.6 | 8.4 | 11 | 4.9 | 5 | 7.4 | 6 | 8.2 | 11 | autophagic flux ([1]; 786-0, alone and combined with bafilomycin A1): effectively inhibited autophagic flux; LC3B expression (immunoblotting) ([1]; A498 and 786-0, 24 h): dose-dependent increase; levels of p62 and cathepsin D (immunoblotting) ([1]; A498 and 786-0, 24 h): corresponding increase; LC3B distribution and levels [2]: formation of LC3B punctae and a robust increase in LC3B levels; cytosolic vacuolization [3]: induced cytosolic vacuolization; CTSD levels [4]: highly significant increase; cell viability of normal renal cells [5]: marginal reduction in cell viability; tolerability ([7]; 25, 40, or 50 mg/kg PO, nude mice): well tolerated; disease progression (tumor volume) ([7]; 25, 40, or 50 mg/kg QD PO, 786-0 xenografts in nude mice): significant, dose-dependent inhibition of disease progression; LC3B in tumors (immunohistochemistry) ([7]; 786-0 xenograft specimens): significant, dose-dependent increases; apoptosis in tumors (cleaved caspase-3 immunohistochemistry) ([7]; 786-0 xenograft specimens): increased apoptosis; p62 in tumors (immunohistochemistry) ([7]; 786-0 xenograft specimens): significant, dose-dependent increases; mean body weight ([7]; highest dose, end of study (Day 46)): very modest, non-significant reduction; oral bioavailability ([7]; mice, PO): orally bioavailable; autophagosomes [9]: promoted the accumulation of autophagosomes; more effective at diminishing RCC cell viability than HCQ [19]: approximately 10 fold; lower IC50s than HCQ [20]: approximately 10 fold; percentages of cells with active caspase-3 expression [22]: dose-dependent increases; percentages of cells with fragmented DNA ([22]; PI-FACS): dose-dependent increases; acridine orange fluorescence (lysosomal membrane permeability) [23]: significant loss of acridine orange fluorescence |
| CCN(CCO)CCCC(C)Nc1ccnc2cc(Cl)ccc12 (stereo not drawn) [HCQ, hydroxychloroquine, reference compound] | 51 | > 75 | > 75 | > 75 | 35 | 58 | 52 | 54 | > 75 | > 75 | > 75 | > 75 | – |
| CCN(CC)CCNc1ccc(C)c2sc3ccccc3c(=O)c12 [LUC, lucanthone] | – | – | – | – | – | – | – | – | – | – | – | – | anticancer activity compared to CQ [24]: approximately 10 × |
